Test [1] addresses T1, PTH1R-WT (Homo sapiens, UniProt Q03431). Briefly: Fluorescence microscopy of ligand internalization and β-arrestin2YFP recruitment, GBR-24 cells, ImageJ. In kind it is cell-based. To be noted: 30 min; for co-clustering of β-arrestin2YFP with ligand in endosomes, in words: 30 nM TMR ligand (unlabeled: 10 nM). The source says: (§1) Images are representative of three independent experiments.
(§2) Scale bars in a and c indicate 10 μm.

The target of test [2] is T2, PTH1R-Y134S (Homo sapiens, UniProt Q03431, Y134S). The description is as above. In kind it is cell-based. The conditions noted are these: for co-clustering of β-arrestin2YFP with ligand in endosomes, in words: 30 nM TMR ligand (unlabeled: 10 nM).
Description: as §1, §2

The target in test [3] is T3, PTH1R-E35K (Homo sapiens, UniProt Q03431, E35K). The description is as above. In kind it is cell-based. The conditions noted are these: for co-clustering of β-arrestin2YFP with ligand in endosomes, in words: 30 nM TMR ligand (unlabeled: 10 nM).
Description: as §1, §2

The test system of test [4] is PTH1R-R485X. To be noted: for co-clustering of β-arrestin2YFP with ligand in endosomes, in words: 30 nM TMR ligand (unlabeled: 10 nM). As for the experimental part:
as §1
Data are representative of three independent experiments (a-d); or means ± SEM of three or four independent experiments (e, f). Bar heights in graphs of panels b and d indicate the means ± SEM of counts from the five cells shown by the individual data points. Scale bars in a and c indicate 10 μm.
Ligand-induced recruitment of β-arrestin2^YFP was assessed in GBR-24 cells, which are HEK293/glosensor (Gs22A)-derived cells stably expressing β-arrestin2^YFP [42]. The cells in six-well plates were transiently transfected with plasmid DNA encoding PTH1R-WT or mutant derivative, and 24 hours later seeded onto glass coverslips in 6-well plates. […] In some experiments, the cells were imaged by confocal microscopy using a Leica DMi8 inverted Microscope at ×400 magnification, and the images were processed using Leica Application Suite X (LAS X) software. Regions of interest were digitally expanded 3-5X to improve views.
Quantification of β-arrestin2^YFP clusters was performed using ImageJ software (vers. 1.53)[67]. The color images were converted to 8 bit and then 16 bit gray-scale, and the threshold was adjusted on a cell-by-cell basis to show distinct particles (interpreted as clusters of β-arrestin2^YFP in intracellular vesicles); threshold values ranged from ~ 20-60. The free-hand tool was used to define the area analyzed for each cell, and the Analyze Particle tool was used to obtain the number of particles, the total area, and the mean gray scale (intensity) of each particle for each cell.

Test [5] addresses T4, PTH1R-H223R (Homo sapiens, UniProt Q03431, H223R). In words: Fluorescence microscopy of ligand internalization and β-arrestin2YFP recruitment, GBR-24 cells, ImageJ. In kind it is cell-based. The conditions noted are these: 10 nM, 30 min.
Description: as §1

Test [6] addresses T5, PTH1R-R485X (Homo sapiens, UniProt Q03431). In words: cell-based.
For test [7], the target named is T2, PTH1R-Y134S. In words: Glosensor cAMP agonist dose-response, Gs22a cells. To be noted: % of maximum response of each ligand on PTH1R-WT; five experiments. In kind it is cell-based.
Test [8] concerns the target T1, PTH1R-WT. Briefly: Glosensor cAMP agonist dose-response, Gs22a cells. In kind it is cell-based. To be noted: % of maximum response of each ligand on PTH1R-WT; five experiments.
Test [9] addresses T3, PTH1R-E35K. In words: Glosensor cAMP agonist dose-response, Gs22a cells. In kind it is cell-based. The conditions noted are these: % of maximum response of each ligand on PTH1R-WT; five experiments.
The target in test [10] is T4, PTH1R-H223R. In words: Glosensor cAMP agonist dose-response, Gs22a cells. In kind it is cell-based. The conditions noted are these: % of maximum response of each ligand on PTH1R-WT; five experiments.
The target in test [11] is T3, PTH1R-E35K. In words: cAMP time course with ligand and after ligand washout (duration), Gs22a cells. In kind it is cell-based. To be noted: 10 nM, 30 min pretreatment.
Description: (§8) Data are means (±SEM) of five (a), four (b, c, e) or three (d) separate experiments.
(§9) Fig. 7 Effects of Eiken mutation on duration of cAMP signaling and desensitization to ligand re-challenge. a Assays were performed in Gs22a cells transiently transfected to express PTH1R-WT or a mutant PTH1R. a Duration of initial cAMP signaling response. […] Response to Ligand rechallenge. After the washout-periods shown in panel a, the cells were rechallenged with the same ligand (1.0 nM) for 60 min and cAMP accumulation was assessed. […] P values indicate comparison by Student’s t test to pre-vehicle treatment: Data are means ± SEM from four separate experiments each in duplicate (b) or quadruplicate (a).
(§10) Basal and ligand-stimulated cAMP signaling was assessed via the glosensor cAMP reporter in Gs22a cells transiently transfected to express either the WT or a mutant hPTH1R in white 96-well plates at room temperature. […] The plate was then placed into a PerkinElmer Envision plate reader and luminescence, as counts per second (cps), was measured at 2-min intervals for 15 min, during which time luciferin uptake occurred and luminescence reached a near steady-state baseline level. The plate was then removed from the plate reader, CIDB alone (vehicle) or containing a test ligand at varying concentrations was added, and luminescence was again measured at 2 min intervals for an additional 30–60 min. […]
For test [12], the target named is T2, PTH1R-Y134S. The test is described as above. In kind it is cell-based. To be noted: 10 nM, 30 min pretreatment.
Description: as §8, §9, §10
For test [13], the target named is T3, PTH1R-E35K. In words: BRET β-arrestin2 recruitment to plasma membrane (rGFP-CAAX), HEK293. In kind it is cell-based.
Description: as §1, §2
(BRET reads energy transfer from a luciferase to a nearby fluorophore.)

Test [14] addresses T3, PTH1R-E35K. In words: BRET β-arrestin2 recruitment to early endosomes (rGFP-FYVE), HEK293. In kind it is cell-based.
Description: as §1, §2

Test [15] addresses T1, PTH1R-WT. In words: Competition binding vs 125I-LA-PTH*, intact Gs22a cells. The conditions noted are these: % of maximum SB at PTHR1-WT; four experiments. The source says: (§3) Supplemental Table 4. Competition Binding Data.
(§4) Ligand-binding properties of PTH1R variants
(§5) Suppl ement al Tabl e 4. Radi ol i gand Bi n d i n g Dat a. […]
(§6) as compet i t or. […] The fit values of […]
(§7) Dat a ar e means (±SEM) of f our exper i ment s; p val ues ar e St udent ’s T t est compar i sons t o

Test [16] concerns the target T4, PTH1R-H223R. Described as above. The conditions noted are these: % of maximum SB at PTHR1-WT; four experiments.
Description: as §3, §4, §5, §6, §7

Test [17] concerns the target T2, PTH1R-Y134S. The test is described as above. The conditions noted are these: % of maximum SB at PTHR1-WT; four experiments.
Description: as §3, §4, §5, §6, §7

Test [18] concerns the target T3, PTH1R-E35K. The description is as above. The conditions noted are these: four experiments.
Description: as §3, §4, §5, §6, §7

Test [19] deals with T5, PTH1R-R485X. In kind it is binding. The conditions noted are these: % of maximum SB at PTHR1-WT; four experiments.
Description: Bar heights indicate the means ± SEM of three individual experiments represented by the data points. […] Data are means (±SEM) of three (a) or four experiments.
(§11) Binding was assessed on confluent monolayers of transiently transfected intact Gs22a cells in 96-well plates. Binding reactions contained HB and 20,000–30,000 cpm/well of radioligand. […] The mixtures were then removed and the cells were rinsed twice with HB and lysed with 5 N NaOH and the lysates were counted for gamma irradiation in a gamma counter. […] After incubation for 2 h at 4 °C, the mixtures were removed, the cells were rinsed twice with HB, lysed with 5N NaOH, and the lysates were counted for gamma irradiation.
The fit values of max i mum SB, as r adi oac t i v e c ount s per mi nut e (cpm), with non-specif ic binding (1, 529±418
Test [20] concerns PTH1R-R485X. The conditions noted are these: 1 nM; vs vehicle-pre-treated cells.
Description: as §9
The cells were then rinsed twice with CIDB and incubated in CIDB for 90 min (washout phase); then rinsed again and incubated in CIDB/luciferin for an additional 10 min, and then treated with vehicle or rechallenged with the same ligand (1.0 nM) and incubations continued for a final 60-min (ligand re-challenge phase); luminescence was monitored at 2 min-intervals during each phase of incubation.
The target of test [21] is T1, PTH1R-WT. In words: cAMP time course with ligand and after ligand washout (duration), Gs22a cells. In kind it is cell-based. To be noted: 1 nM, 90 min washout; all PTH1R variants.
Description: as §8, §9, §10
The target in test [22] is T1, PTH1R-WT. In words: Visualization of surface receptors after PTH(1-34)FAM pre-stimulation. In kind it is cell-based. To be noted: 30 nM, 30 min, RT.
Description: (§12) To visualize receptors on the surface of non-stimulated cells, cells were fixed with 3.7% paraformaldehyde for 5 min at room temperature, incubated for 1 hour at room temperature with anti-HA mouse monoclonal primary antibody (anti-HA.11, BioLegend, Cat. No. 901513), rinsed, incubated for 1 h at room temperature with a goat-anti-mouse IgG secondary antibody poly-conjugated to HRP (poly-HRP-anti-mIgG; ThermoFisher Scientific, Cat. No. 32230), stained with Tyramide-Alexafluor-594 (Tyr^594; Tyramide SuperBoost Kit ThermoFisher Scientific, Cat. No. B4092), then mounted on a glass microscope slide in Vectashield containing DAPI and imaged using a Nikon Eclipse fluorescence microscope at 400X magnification.
Test [23] has as its system PTH1R-R485X. The conditions noted are these: 30 nM, 30 min, RT.
Description: as §12
Test [24] has as its target T4, PTH1R-H223R. In words: Total binding of 125I-PTHrP(1-36), intact Gs22a cells.
Description: as §11
Test [25] has as its target T3, PTH1R-E35K. Described as above.
Description: as §11
For test [26], the target named is T2, PTH1R-Y134S. Described as above.
Description: as §11
Test [27] concerns PTH1R-R485X.
Description: as §11

Where two headings read alike, the source gives them in different places.

This is an account of results in PMC10238420, “Altered Signaling and Desensitization Responses in PTH1R Mutants Associated with Eiken Syndrome” (Communications Biology, 2023).

Usually Emax stands for the size of the effect at its maximum, as opposed to the concentration needed.

Regarding “AVSEIQLnLHNLGrKH L ASVERnLQWLRKKLQDVHNF.NH2 [PTH(1-34)^TMR, tetramethyl rhodamine attached to the epsilon amino function of lysine-13]”, the “co-localization of ligand clusters with β-arrestin2YFP, in words” value at PTH1R-WT [1] (10 nM) is listed as “co-localized with β-arrestin2^YFP”; on PTH1R-Y134S [2] (10 nM, 30 min), “co-localized with β-arrestin2^YFP”; on PTH1R-E35K [3] (10 nM, 30 min) it was “co-localized with β-arrestin2^YFP”; in the test on PTH1R-R485X [4] (10 nM, 30 min) it was “did not co-localize in clusters”; at PTH1R-H223R [5] it was “co-localized with β-arrestin2^YFP”.

For the molecule `CC[C@H](C)[C@H](NC(=O)[C@H](CCC(=O)O)NC(=O)[C@H](CO)NC(=O)[C@@H](NC(=O)[C@@H](N)CO)C(C)C)C(=O)N[C@@H](CCC(N)=O)C(=O)N[C@@H](CC(C)C)C(=O)N[C@@H](CCSC)C(=O)N[C@@H](Cc1c[nH]cn1)C(=O)N[C@@H](CC(N)=O)C(=O)N[C@@H](CC(C)C)C(=O)NCC(=O)N[C@@H](CCCCN)C(=O)N[C@@H](Cc1c[nH]cn1)C(=O)N[C@@H](CC(C)C)C(=O)N[C@@H](CC(N)=O)C(=O)N[C@@H](CO)C(=O)N[C@@H](CCSC)C(=O)N[C@@H](CCC(=O)O)C(=O)N[C@@H](CCCNC(=N)N)C(=O)N[C@H](C(=O)N[C@@H](CCC(=O)O)C(=O)N[C@@H](Cc1c[nH]c2ccccc12)C(=O)N[C@@H](CC(C)C)C(=O)N[C@@H](CCCNC(=N)N)C(=O)N[C@@H](CCCCN)C(=O)N[C@@H](CCCCN)C(=O)N[C@@H](CC(C)C)C(=O)N[C@@H](CCC(N)=O)C(=O)N[C@@H](CC(=O)O)C(=O)N[C@H](C(=O)N[C@@H](Cc1c[nH]cn1)C(=O)N[C@@H](CC(N)=O)C(=O)N[C@@H](Cc1ccccc1)C(N)=O)C(C)C)C(C)C` [PTH(1-34)], the Emax on PTH1R-R485X [6] (read-out: Emax of that attained on PTH1R-WT) is ~80%; on PTH1R-R485X [6] (read-out: cAMP Emax), 81 ± 10%; at PTH1R-Y134S [7], 96 ± 4%; at PTH1R-WT [8], 100%; on PTH1R-E35K [9], 106 ± 5%; on PTH1R-H223R [10], 48 ± 6%.

In the case of “AVSEIQL L H D KGKSIQD L R R R FFL H H L IAEIH TAEI.N H2 [Ile^5-PTHrP(1-36)]”, the “duration of cAMP response vs His5-PTHrP(1-36), in words” value on PTH1R-E35K [11] and on PTH1R-Y134S [12] was “more sustained cAMP signaling response” each time. In addition, the “co-clustering of β-arrestin2YFP, in words” value is “r obust co-clust ering” on PTH1R-Y134S [2] (10 nM unlabeled peptide), “r obust co-clust ering” on PTH1R-E35K [3] (10 nM unlabeled peptide) and “not” in the test on PTH1R-R485X [4] (10 nM unlabeled peptide). For the same molecule, the “potency ratio vs PTHrP(1-36)” value at PTH1R-E35K [13] and at PTH1R-E35K [14] was ~10 fold in each case. Moreover, the “potency vs PTH(1-34), in words” value at PTH1R-E35K [13] and on PTH1R-E35K [14] was “as potent as PTH(1-34)” each time.

In the case of “AVAEIQLnLHQRAKWIQDARRRAFLHKLIAEIHTAEY.NH2 [125I-LA-PTH*, radioligand prepared by chloramine T oxidation with 125I-Na]”, the “maximum specific binding (SB) of radioligand” value is listed as 100 ± 0% on PTH1R-WT [15]; 114 ± 22% on PTH1R-H223R [16]; 93 ± 14% at PTH1R-Y134S [17]; 89 ± 11% at PTH1R-E35K [18] (% of maximum SB at PTHR1-WT); 107 ± 14% at PTH1R-R485X [19]. On PTH1R-E35K [18] (non-specific binding subtracted), the “fit maximum SB of radioligand” value is 5,179±936 cpm.

On to “AVSEIQL L H D KGrKSIQD L R R R FFL H H L IAEIH TAEI.N H 2 [Ile^5-PTHrP(1-36)^TMR]”, for which the “co-clustering of β-arrestin2YFP with ligand in endosomes, in words” value on PTH1R-WT [1] is listed as “robust co-clustering of β-arrestin2^YFP”; at PTH1R-Y134S [2] (30 min) it was “robust co-clustering of β-arrestin2^YFP”; on PTH1R-E35K [3] (30 min), “robust co-clustering of β-arrestin2^YFP”; in the test on PTH1R-R485X [4] (30 min), “remained dispersed in the cytoplasm”.

With “AVAEIQL MH QR AKWIQD AR R R AFL H KL IAEIH TAEI.OH [LA-PTH, agonist analog]”, in the test with PTH1R-R485X [20], the “response upon ligand rechallenge, in words” value was “significantly blunted”. In addition, on PTH1R-WT [21], the “residual cAMP signaling at end of washout, in words” value is recorded as “elevated for all PTH1R variants”.

With “SVSEIQL MH N L GfKH L N SMER VEWL R KKL QD VH N F.OH [PTH(1-34)FAM]”, the “ligand internalization, in words” value on PTH1R-WT [22] and with PTH1R-R485X [23] was “observed mainly in internalized clusters” each time.

Turning to “AVSEH QL L H D KGKSIQD L R R R FFL H H L IAEIH TAEY.N H 2 [125I-PTHrP(1-36)]”, the “total binding vs PTH1R-WT, in words” value on PTH1R-H223R [24] and in the test with PTH1R-R485X [27] was “comparable to that on PTH1R-WT” in each case. For the same molecule, the “reduction of total binding vs PTH1R-WT” value on PTH1R-E35K [25] and on PTH1R-Y134S [26] was ~ 50% in each case.

For the molecule “AVSEH QL L H D KGrKSIQD L R R R FFL H H L IAEIH TAEI.N H 2 [PTHrP(1-36)^TMR]”, the “co-clustering of β-arrestin2YFP with ligand in endosomes, in words” value at PTH1R-WT [1] is recorded as “robust co-clustering of the ligand in endosomes with β-arrestin2^YFP”; at PTH1R-Y134S [2] (30 min), “no co-clustering with β-arrestin2^YFP”; at PTH1R-E35K [3] (30 min), “no co-clustering with β-arrestin2^YFP”; in the test on PTH1R-R485X [4] (30 min), “no co-clustering with β-arrestin2^YFP”.
